Laboratory results published in US9840465B2 (priority 2013, dated 2017).
pEC50: −log10 of the molar value. Counter-ions that a name gives are not always drawn. Like-named read-outs stand apart in the source and are kept apart here.

Key:
[1] = system: A2/Taiwan/1/64 (H2N2), M2 WT; experiment: microbe, parasite or virus in culture; type: cell-based; conditions: read-out: EC50 A2/Taiwan/1/64 (H2N2)
[2] = system: A/Victoria/3/75 (H3N2), M2 WT; experiment: microbe, parasite or virus in culture; type: cell-based; conditions: read-out: EC50 A/Victoria/3/75 (H3N2)

With `CCCCCCC1(N)C2CC3CC(C2)CC1C3` (stereo not drawn) (as salt: fumarate) [Compound 101, 2-n-hexyl-tricyclo[3.3.1.1^3,7]decan-2-amine] the melting point was 225 °C.

For `CCC1CCC2(N1)C1CC3CC(C1)CC2C3` (stereo not drawn) (as salt: fumarate) [Compound 347, 5-ethylspiro[pyrrolidine-2,2′-tricyclo[3.3.1.1^3,7]decane]], the melting point was 191 to 193 °C (dec.).

`NC12CC3CC(CC(C3)C1)C2` [Amantadine (1), Amantadine, reference compound] gave a pEC50 ([1]; Influenza A virus, H2N2, MDCK) of 6.47 and a pEC50 ([2]; Influenza A virus, H3N2, MDCK) of 5.55.

With `CCCC1(N)C2CC3CC(C2)CC1C3` (stereo not drawn) [Compound 7] the pEC50 ([1]; Influenza A virus, H2N2, MDCK) was > 6.62 and the pEC50 ([2]; Influenza A virus, H3N2, MDCK) was 4.64.

For `CCCCC1(N)C2CC3CC(C2)CC1C3` (stereo not drawn) [Compound 17, (1r,3r,5r,7r)-2-butyladamantan-2-amine], the pEC50 [1] was 5.82 and the pEC50 [2] was 5.40.

For `CC(C)CC1(N)C2CC3CC(C2)CC1C3` (stereo not drawn) [Compound 18, (1r,3r,5r,7r)-2-isobutyladamantan-2-amine], the pEC50 [1] was 6.40 and the pEC50 [2] was 4.89.

`NC1(c2ccccc2)C2CC3CC(C2)CC1C3` (stereo not drawn) [Compound 19, (1r,3r,5r,7r)-2-phenyladamantan-2-amine] showed a pEC50 [1] of 6.70 and a pEC50 [2] of 5.10.

Compound `NC1(Cc2ccccc2)C2CC3CC(C2)CC1C3` (stereo not drawn) [Compound 20, (1r,3r,5r,7r)-2-benzyladamantan-2-amine] has a pEC50 [1] of 6.70 and a pEC50 [2] of 4.74.

In the case of `CCCCCCC1(N)C2CC3CC(C2)CC1C3` (stereo not drawn) [Compound 101, 2-n-hexyl-tricyclo[3.3.1.1^3,7]decan-2-amine], the pEC50 ([1]; Influenza A virus, H2N2, MDCK) was 5.82, the pEC50 ([2]; Influenza A virus, H3N2, MDCK) was 5.96 and the “microscopic evidence of cytotoxicity to MDCK cells” value (MDCK cells) was “No microscopic evidence of cytotoxicity”.

Compound `CC(C)(N)C12CC3CC(CC(C3)C1)C2` [Compound 259, 2-(adamantan-1-yl)propan-2-amine] has a pEC50 ([1]; Influenza A virus, H2N2, MDCK) of 5.96 and a pEC50 ([2]; Influenza A virus, H3N2, MDCK) of 5.47.

For `CC(N)C12CC3CC(CC(C3)C1)C2` (stereo not drawn) [Rimantadine (2), Rimantadine, reference compound], the pEC50 ([1]; Influenza A virus, H2N2, MDCK) was 5.80 and the pEC50 ([2]; Influenza A virus, H3N2, MDCK) was 6.28.
